According to paper PMC10391610, “Survivin prevents the polycomb repressor complex 2 from methylating histone 3 lysine 27” (iScience, 2023):

Assays:
survivin = target: T1, survivin (Homo sapiens, UniProt O15392); test: PEPperCHIP peptide microarray, survivin interaction; type: binding; details: 1 μg/mL survivin; for Average FI (%): anti-His tag DyLight680 read-out, percentage of maximum fluorescence intensity units (64193) per peptide; for Average FI (%) / Integrated FI: 15-mer microarray peptides covering the residues; for Integrated FI: in units of the maximum FI per peptide; for survivin interaction / fluorescence on microarray (in words): peptide microarray
T1 construct: transferred to the survivin1-142 construct used in the present study; His8 tag (pHIS8 vector, thrombin-cleavable); made in house; host or cells: E. coli BL21(DE3) star
Text: We were looking for potential direct interactions between survivin and short peptide sequences originating from PRC2 subunits and other proteins involved in histone modifications based on the in vivo results. Therefore, we created a peptide microarray of overlapping peptides obtained from EZH2, EED, SUZ12, and JARID2 to investigate how survivin interacts with the activity of the PRC2 complex. These subunits form the core of PRC2, and the interaction of survivin with the PRC2 molecular scaffold indicates a potentially disruptive role for survivin in PRC2 function. The fluorescence signal generated by labeled survivin is compared in Figure 2 as a function of position along the polypeptide chain of PRC2 subunits. Figure S1 depicts the raw fluorescence images. Moreover, the microarray fluorescence intensities projected on the three-dimensional structure of the PRC2 core complex are shown in Figure 3. The whole dataset is deposited at the Zenodo data base.
The location of survivin on the peptide microarray was clearly correlated with the amino acid content of the peptide at 1 μg/mL survivin concentration. When evaluating how accurate the predictions were, one should keep in mind that the primary and higher-order structures of the peptide were not at all considered in this analysis. Mislabeling peptides is possible for multiple reasons. The smallest fluorescence signal was chosen as the limit of detection and photon-counting errors may cause weak interactions to be undetected at low fluorescence intensities. Moreover, if the fluorescence intensity of experimental duplicates varied by more than 40%, a peptide was classified as non-interacting even if the lack of reproducibility is ambiguous evidence for the lack of interaction. […] Reducing the number of hidden layer perceptrons from 100 (the default value) to 9 had no effect on the classifier’s performance. Even a 15 amino acid peptide segment composition gives a high degree of uniqueness and highly scalable intensity for survivin-peptide interaction. Survivin has a non-globular structure with no deep binding pockets.
A peptide microarray was designed using the protein sequences from: Cdk1 (P06493), KAT2A/GCN5 (Q92830), SPI1/PU1 (P17947), SUZ12 (Q15022), EED (O75530), JADE3 (Q92613), DIABLO/SMAC (Q9NR28), BOREALIN (Q53HL2), INCENP (Q9NQS7), SGOL1 (Q5FBB7), SGOL2 (Q562F6), EZH2 (Q15910), JARID2 (Q92833), Histone H3 (P68431), AURORAKB (Q96GD4), JADE1 (Q6IE81), JTB (O76095), EVI5 (O60447), RAN (P62826), USP9X (Q93008), C-IAP1 (Q13490), STAT3 (P40763), BRUCE/APOLLON (Q9NR09), XPO1 (O14980), CDX2 (Q99626), Msx2 (P35548), RBM15 (Q96T37), PHF21A (Q96BD5), PHF8 (Q9UPP1), DIDO (Q9BTC0), JADE2 (Q9NQC1) and HASPIN (Q8TF76). The Uniprot ID is shown in parenthesis. The protein sequences were divided into 15 amino acid long peptides with a 10 amino acid overlap. To investigate background interactions with the protein-derived peptides that could interfere with the main assays, one of the PEPperCHIP Peptide Microarrays (PEPperPRINT Gmbh) was pre-staining with the secondary 6x His Tag Antibody DyLight680 antibody at a dilution of 1:1000 and with the monoclonal anti-HA (12CA5)-DyLight800 control antibody at a dilution of 1:1000. Subsequent incubation of other peptide microarray copies with survivin at a concentration of 1 μg/ml in incubation buffer was followed by staining with the secondary 6x His Tag Antibody DyLight680 antibody (Rockland Immunochemicals, Pottstown, PA, USA) and the monoclonal anti-HA (12CA5)-DyLight800 control antibody (Rockland Immunochemicals, Pottstown, PA, USA). The read-out was performed by scanning intensities of 7/7 (red/green). As an internal quality control, HA and His tag control peptides were stained simultaneously to confirm assay quality and to facilitate grid alignment for data quantification. The LI-COR Odyssey Imaging System was used for read-out, and the PepSlide Analyzer was used for quantification of spot intensities and peptide annotation. […]

[U-15N]-survivin = target: T2, [U-15N]-survivin (Homo sapiens, UniProt O15392); test: NMR titration of [U-15N]-survivin with PRC2-derived peptides; type: binding; details: for NMR cpc (critical peptide concentration): 300 μM [U-15N]-survivin, 50 mM Tris, 150 mM NaCl, 1 mM DTT, pH 7.5, 298 K, Bayesian logistic fit (Table 3); for <L>: logistic function parameter L; for <L> / <b> / <k>: posterior mean (Table S10); for <b>: logistic function parameter b; for <k>: logistic function parameter k
T2 construct: transferred to the survivin1-142 construct used in the present study; His8 tag (pHIS8 vector, thrombin-cleavable); made in house; host or cells: E. coli BL21(DE3) star, M9 medium with 15NH4Cl
Description: Uniformly [U] labeled [U-^15N] survivin was produced in H2O-based M9 medium[69] containing ^15NH4Cl as the sole nitrogen and in case of or [U-^15N,^13C] survivin D-(^13C)-glucose was additionally added as the sole carbon source, respectively (Sigma-Aldrich). Expression was induced with 0.5 mM IPTG and continued for 20–22 h at 15°C. Cell harvesting and subsequent purification followed the same protocol as for unlabeled survivin.
NMR measurements were performed on Bruker (Fällanden, Switzerland) AvanceIII 800 MHz spectrometers running Topspin 3.5 or 3.6, respectively, equipped with cryogenically cooled triple resonance probes. All NMR experiments were performed in NMR buffer (50 mM Tris, 150 mM NaCl, 1 mM DTT, pH 7.5) and at 298 K. The sequence-specific backbone assignment of survivin1-117 was taken from previously published assignment,[50] and transferred to the survivin1-142 construct used in the present study. Existing resonance assignments were confirmed, and additional resonances were assigned in a sequence-specific manner by the following experiments: [^1H,^15N]-TROSY HSQC,[70] BEST-TROSY-type HNCA and HNCO experiments.[71]
The peptides were synthetized and purified to 95% by Biomatik. The peptides were titrated into ^15N labelled survivin (0.3 mM). Standard 2D [^15N,^1H]-SOFAST-HMQC[72] experiments were recorded with inter-scan delays of 200 ms and 1025 x 256 complex points for the ^1H and ^15N dimensions, respectively, for the titrations of the different peptides with [U-^15N] survivin.
For the global analysis, the NMR signal strength was quantified by summing the 200 highest values in each 2D NMR spectrum to ensure that all peaks corresponding to the different amino acid residues in survivin are potentially covered. The titration curve was modelled using a Bayesian machine learning approach using the python library pymc3.[66] The logistic function was chosen due to computational convenience. The most important parameter of this function was coined “critical peptide concentration (cpc)” and its logarithm was modelled using a uniform a priori distribution between −10 and 1. p(log10cpc|lower=−10,upper=1)=1/upper−lower
The modelling errors related to the choice of function affect the analysis of different peptides similarly. Therefore, the relative magnitude of cpc in comparison is more reliable than the absolute magnitude of cpc itself. The concentration values were converted to dimensionless quantities by dividing with 1 mM and the NMR signal intensity was normalized for the concentration range studied.
A deterministic sigmoid (logistic) function was used to model signal decay as a function of peptide concentration. Additional a priori assumptions of the function parameters were the following: p(k|lower=−10,upper=10)=1/upper−lower p(L|lower=−3,upper=3)=1/upper−lower p(b|lower=−10,upper=10)=1/upper−lower
1000 posterior samples were collected in four parallel chains using the No-U-Turn sampling algorithm (NUTS) after 2000 tuning steps/chain.[83] The default sampling parameters were used except for “target accept” parameter, which was increased to 0.95. For the final analysis the 1000 samples from the four chains were merged to yield 4000 samples.

T2 sequence (O15392 whole entry): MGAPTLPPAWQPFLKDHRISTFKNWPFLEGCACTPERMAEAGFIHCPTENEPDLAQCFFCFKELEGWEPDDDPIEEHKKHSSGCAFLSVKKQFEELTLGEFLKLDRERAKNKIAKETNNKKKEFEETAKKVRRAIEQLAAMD
T1 sequence (O15392 whole entry): as above

| Sequence | Average FI (%) (survivin) | Integrated FI (survivin) | survivin interaction / fluorescence on microarray (in words) (survivin) | NMR cpc (critical peptide concentration) ([U-15N]-survivin) [µM] | <L> ([U-15N]-survivin) | <b> ([U-15N]-survivin) | <k> ([U-15N]-survivin) |
| --- | --- | --- | --- | --- | --- | --- | --- |
| PLRPQEMEVDSEDEKDPEWLREKTI [SUZ12_573-597, PRC2-derived peptide, SUZ12 residues 573–597, synthesized by Biomatik] | 20 | 0.6 | high survivin-associated fluorescence intensity | 0.0066 | -0.59 | 0.87 | 0.99 |
| PNSMVYFGSSQDEEEVEEEDDETED [JARID2_170-194, PRC2-derived peptide, JARID2 residues 170–194, synthesized by Biomatik] | 100 | 3.00 | high survivin-associated fluorescence intensity | 0.0085 | -0.53 | 0.79 | 1.25 |
| SQGEIRLLQSYVDADADENFYTCAW [EED128-152, PRC2-derived peptide, EED residues 128–152, synthesized by Biomatik] | 10 | 0.31 | high survivin-associated fluorescence intensity | 0.0076 | -0.00 | 0.51 | -0.01 |
